Each block holds one compound with its values, some of them ahead of it.
Test: solvent given as SMILES

emission maximum (in ClC(Cl)Cl): 615 nm | emission maximum (in ClCCl): 607 nm
Structure (SMILES): CCCCN1C(=O)c2cc(Oc3ccc(C(C)(C)C)cc3)c3c4c(Oc5ccc(C(C)(C)C)cc5)cc5c6c(cc(Oc7ccc(C(C)(C)C)cc7)c(c7c(Oc8ccc(C(C)(C)C)cc8)cc(c2c37)C1=O)c64)C(=O)N(CCCC)C5=O

emission maximum (in CS(C)=O): 826 nm
Structure (SMILES): CN(C)c1ccc(C2=[N+]3C(=Nc4c(-c5ccc(OCCCCS(=O)(=O)[O-])cc5)cc(-c5ccc(N(C)C)cc5)n4[B-]3(F)F)C(c3ccc(OCCCCS(=O)(=O)[O-])cc3)=C2)cc1

emission maximum (in O): 400 nm
Structure (SMILES): CCn1c(-c2ccc(-c3ccc(-c4ccc(-c5n(CC)c6ccccc6[n+]5CC)cc4)c(C)c3)cc2)[n+](CC)c2ccccc21

emission maximum (in ClC(Cl)Cl): 647 nm
Structure (SMILES): F[B-]1(F)n2c(cc3c2-c2ccccc2CC3)C(c2ccc(I)cc2)=C2C=C3CCc4ccccc4C3=[N+]21

emission maximum (in C1CCCCC1): 728 nm
Structure (SMILES): COc1ccc2c(c1)c1cc(OC)ccc1n2-c1cc(Cl)c([C](c2c(Cl)cc(Cl)cc2Cl)c2c(Cl)cc(Cl)cc2Cl)c(Cl)c1

emission maximum (in CCOC(C)=O): 429 nm
Structure (SMILES): CCn1c(-c2ccc(-c3cccc4ccccc34)cc2)c(-c2ccc3ccccc3c2)c(-c2ccc3ccccc3c2)c1-c1ccc(-c2cccc3ccccc23)cc1

emission maximum (in CN(C)C=O): 537 nm
Structure (SMILES): Nc1ccc(N2C(=O)c3ccc4c5ccc6c7c(ccc(c8ccc(c3c48)C2=O)c75)C(=O)N(c2ccc(O)cc2)C6=O)cc1

emission maximum (in ClCCl): 499 nm
Structure (SMILES): Cc1c(C(=O)c2c(F)cc(F)cc2F)c2ccc3cccc4c5cccc6ccc1c(c65)c2c34

emission maximum (in CC#N): 460 nm
Structure (SMILES): CC(C)(C)Nc1oc(C=Cc2ccccc2)c(C(=O)OC(C)(C)C)c1C(=O)OC(C)(C)C

emission maximum (in C1COCCO1): 461 nm
Structure (SMILES): COC(=O)c1ccc(/C=C2\N=C(c3ccccc3)NC2=O)cc1

emission maximum (in ClC(Cl)Cl): 669 nm
Structure (SMILES): Cc1cc(C)c(C2=C3C=CC=[N+]3[B-]3(c4cccc5ccccc45)Oc4cc(O)cc5c6ccc(C)cc6c6cc2n3c6c45)c(C)c1 (centres undefined)

emission maximum (in ClCCl): 586 nm
Structure (SMILES): CC(C)(C)c1cc(-n2c(-c3ccc(C(=C(c4ccccc4)c4ccccc4)c4ccccc4)cc3)cc3c2cc(-c2ccc(C(=C(c4ccccc4)c4ccccc4)c4ccccc4)cc2)n3-c2cc(C(C)(C)C)cc(C(C)(C)C)c2)cc(C(C)(C)C)c1

emission maximum (in ClC(Cl)Cl): 466.4 nm
Structure (SMILES): F[B-]1(F)OC(c2ccc(Br)cc2)=Cc2c3ccccc3cc[n+]21

emission maximum (in ClCCl): 432 nm
Structure (SMILES): CCOC(=O)c1ccc(C2=Cc3cc4ccccc4cc3P2(=O)c2ccccc2)cc1 (centres undefined)

emission maximum (in C1CCCCC1): 434.97 nm | emission maximum (in C1COCCO1): 443.26 nm | emission maximum (in CC#N): 449.03 nm | emission maximum (in CC(C)O): 448.03 nm | emission maximum (in CCCCCC): 434.22 nm | emission maximum (in ClC(Cl)Cl): 446.43 nm | emission maximum (in c1ccccc1): 441.7 nm
Structure (SMILES): CC1(C)CCc2c(c3ccccc3c3nc4c(nc23)c2c(c3ccccc34)OC(C)(C)CC2)O1

emission maximum (in C1CCCCC1): 463 nm | emission maximum (in CC#N): 507 nm | emission maximum (in CCO): 553 nm | emission maximum (in c1ccccc1): 485 nm
Structure (SMILES): O=C1c2ccccc2-c2ccccc21

emission maximum (in ClCCl): 683 nm
Structure (SMILES): C1=CC2C=c3c(cc4cccc5cc6ccccc6c3c45)C3=c4ccccc4=CC(=C1)C32 (centres undefined)

emission maximum (in CCO): 637 nm | emission maximum (in ClC(Cl)Cl): 636 nm | emission maximum (in O): 646 nm
Structure (SMILES): CCN(CC)c1ccc2c(c1)oc(=O)c1c(-c3ccccc3C(=O)O)c3ccc(=[N+](CC)CC)cc-3oc12

emission maximum (in ClCCl): 435 nm
Structure (SMILES): c1ccc(N(c2ccccc2)c2ccc(-c3ccc(-c4nc(-c5ccccn5)n(-c5ccccc5)n4)cc3)cc2)cc1

emission maximum (in O): 615 nm
Structure (SMILES): O=S(=O)([O-])c1cc(S(=O)(=O)Cl)ccc1C1=c2cc3c4c(c2Oc2c1cc1c5c2CCCN5CCC1)CCC[N+]=4CCC3

emission maximum (in CO): 473 nm
Structure (SMILES): COc1ccc(-c2nc(-c3ccc(C#N)cc3)[nH]c2-c2ccc(OC)cc2)cc1

Continued, compound first:

Structure (SMILES): CC(C)(C)c1ccc(N2c3ccc(C(C)(C)C)cc3B3c4cc(C(C)(C)C)ccc4N(c4ccc(C(C)(C)C)cc4)c4cc(-n5c6ccc(C(C)(C)C)cc6c6cc(C(C)(C)C)ccc65)cc2c43)cc1
emission maximum (in Cc1ccccc1): 470 nm

Structure (SMILES): COc1ccccc1-c1nc2c3cccnc3c3ncccc3c2n1-c1ccccc1
emission maximum (in Cc1ccccc1): 396 nm

Structure (SMILES): CC1(C)c2ccccc2N(c2ccc(-c3nc4cc(C#N)c(C#N)cc4nc3-c3ccc(N4c5ccccc5C(C)(C)c5ccccc54)cc3)cc2)c2ccccc21
emission maximum (in Cc1ccccc1): 620 nm

Structure (SMILES): c1ccc(C2=C(c3ccccc3)c3cccc4c3c(cc3nc5cc(-c6ccc(N(c7ccccc7)c7ccccc7)cc6)c(-c6ccc(N(c7ccccc7)c7ccccc7)cc6)cc5nc34)O2)cc1
emission maximum (in ClCCl): 568 nm

Structure (SMILES): COc1cc(-c2cnc(-c3ccncc3)o2)cc(OC)c1OC
emission maximum (in ClCCl): 465 nm

Structure (SMILES): CC(C)[Si](C#Cc1ccc(C#C[Si](C(C)C)(C(C)C)C(C)C)c2nc3cc4c(cc3nc12)[C@H]1c2ccccc2[C@@H]4c2ccccc21)(C(C)C)C(C)C
emission maximum (in CCCCCC): 455 nm | emission maximum (in ClCCl): 473 nm

Structure (SMILES): N#C/C(=N/Nc1ccc(C#N)cc1)c1nc(-c2ccccc2)cs1
emission maximum (in CCO): 486 nm | emission maximum (in Cc1ccccc1): 490 nm | emission maximum (in ClCCl): 492 nm

Structure (SMILES): Cc1ccc(-c2cc(-c3ccccc3Cl)c3c(N)nc(N4CCCC4)c(C#N)c3n2)cc1
emission maximum (in CC#N): 526 nm | emission maximum (in CC(C)=O): 522 nm | emission maximum (in CC(C)O): 516 nm | emission maximum (in CO): 525 nm | emission maximum (in ClC(Cl)Cl): 508 nm | emission maximum (in ClCCl): 514 nm | emission maximum (in c1ccccc1): 512 nm

Structure (SMILES): O=S(=O)([O-])c1ccccc1/C=C/c1ccc(-c2nnc(-c3ccc(/C=C/c4ccccc4S(=O)(=O)[O-])cc3)o2)cc1
emission maximum (in C1CCOC1): 415 nm | emission maximum (in CC(C)=O): 416 nm | emission maximum (in CN(C)C=O): 422 nm

Structure (SMILES): CN(C)c1ccc(/C=C/C=C2\CC/C(=C\c3ccc(N(C)C)cc3)C2=O)cc1
emission maximum (in C1CCOC1): 649 nm | emission maximum (in CC#N): 666 nm | emission maximum (in CC(C)=O): 650 nm | emission maximum (in CC(C)O): 687 nm | emission maximum (in CCCCCC): 504 nm | emission maximum (in CCCCO): 712 nm | emission maximum (in CCCCOC(C)=O): 581 nm | emission maximum (in CCCO): 717 nm | emission maximum (in CCO): 725 nm | emission maximum (in CCOC(=O)c1ccccc1): 604 nm | emission maximum (in CCOC(C)=O): 591 nm | emission maximum (in CCOCC): 546 nm | emission maximum (in CN(C)C=O): 656 nm | emission maximum (in CO): 737 nm | emission maximum (in CS(C)=O): 676 nm | emission maximum (in Cc1ccccc1): 530 nm | emission maximum (in ClC(Cl)(Cl)Cl): 515 nm | emission maximum (in ClC(Cl)Cl): 623 nm | emission maximum (in ClCCl): 635 nm | emission maximum (in Clc1ccccc1Cl): 608 nm | emission maximum (in S=C=S): 540 nm | emission maximum (in c1ccccc1): 532 nm | emission maximum (in c1ccncc1): 643 nm

Structure (SMILES): CC1(C)C(/C=C/C2=C(Cl)C(=C/C=C3/N(Cc4ccc([N+](=O)[O-])cc4)c4ccccc4C3(C)C)/CCC2)=[N+](Cc2ccc([N+](=O)[O-])cc2)c2ccccc21
emission maximum (in CO): 807 nm

Structure (SMILES): CC/[NH+]=c1\cc2oc3cc(NCCC(=O)NC(C(=O)OC)c4ccccc4)c4ccccc4c3nc-2cc1C (centres undefined)
emission maximum (in CCO): 644 nm | emission maximum (in O): 657 nm

Structure (SMILES): Cc1cccc(C)c1N1C(c2ccccc2)=Cc2ccc3ccccc3[n+]2[B-]1(F)F
emission maximum (in ClCCl): 468 nm

Structure (SMILES): COc1c2ccccc2c(-c2ccccc2)c2ccccc12
emission maximum (in C1COCCO1): 424 nm | emission maximum (in CCCCCC): 420 nm | emission maximum (in CCCCCCC): 420 nm | emission maximum (in CCCCO): 426 nm | emission maximum (in CCO): 426 nm | emission maximum (in CN(C)C=O): 426 nm | emission maximum (in Cc1ccccc1): 419 nm | emission maximum (in ClC(Cl)(Cl)Cl): 426 nm | emission maximum (in ClC(Cl)Cl): 426 nm | emission maximum (in ClCCl): 426 nm | emission maximum (in OCC(O)CO): 426 nm | emission maximum (in OCCO): 426 nm

Structure (SMILES): CCC1=C(C)c2cc3c(OC)cc(OC)cc3c(=O)n2C1=O
emission maximum (in CC#N): 476 nm | emission maximum (in CO): 510 nm | emission maximum (in CS(C)=O): 485 nm | emission maximum (in ClC(Cl)Cl): 469 nm

Structure (SMILES): COc1ccc2oc(-c3cc4cc(OC)ccc4oc3=O)cc2c1
emission maximum (in CC#N): 480 nm | emission maximum (in CCOC(C)=O): 443 nm | emission maximum (in CS(C)=O): 484 nm | emission maximum (in Cc1ccccc1): 446 nm

Structure (SMILES): CN1/C(=C/C=C(/C=C/c2sc3ccccc3[n+]2C)c2cc(F)cc(F)c2)Sc2ccccc21
emission maximum (in CCO): 670 nm | emission maximum (in CO): 668 nm | emission maximum (in CS(C)=O): 675 nm | emission maximum (in O): 671 nm

Structure (SMILES): c1ccc(-c2ccc(-c3ccccc3)cc2)cc1
emission maximum (in C1CCOC1): 340 nm | emission maximum (in C1COCCO1): 342 nm | emission maximum (in CCO): 375 nm

Structure (SMILES): CCCCc1cc(-c2cccc(COC)c2)oc1-c1cccc(-c2cc(CCCC)c(-c3cccc(-c4oc(-c5cccc(-c6oc(-c7cccc(COC)c7)cc6CCCC)c5)cc4CCCC)c3)o2)c1
emission maximum (in ClC(Cl)Cl): 373 nm

Structure (SMILES): COc1ccc(C2=CC(c3cc(OC)cc(OC)c3)=[O+][B-](F)(F)O2)cc1
emission maximum (in CC#N): 587.1 nm | emission maximum (in CC(C)=O): 556.04 nm | emission maximum (in CCCCCC): 410.21 nm | emission maximum (in Cc1ccccc1): 450.94 nm | emission maximum (in ClCCl): 525 nm

Structure (SMILES): N#Cc1ccc(-c2ccc3c(c2)c2cc(-c4ccc(C#N)cc4)ccc2c2c3nc(-c3ccc(N(c4ccccc4)c4ccccc4)cc3)n2-c2ccccc2)cc1
emission maximum (in C1CCOC1): 449.94 nm | emission maximum (in CC#N): 479.9 nm | emission maximum (in CCCCCC): 419.62 nm | emission maximum (in CCOCC): 439.6 nm

Structure (SMILES): CCN(CC)c1ccc([N+]2=Cc3ccc4c5c(ccc4c3O[B-]2(c2ccccc2)c2ccccc2)C=[N+](c2ccc(N(CC)CC)cc2)[B-](c2ccccc2)(c2ccccc2)O5)cc1
emission maximum (in Cc1ccccc1): 627 nm | emission maximum (in ClCCl): 644 nm

Structure (SMILES): CC(C)(C)c1ccc(N(c2ccc(C(C)(C)C)cc2)c2ccc(S(=O)(=O)c3ccc(N(c4ccc(C(C)(C)C)cc4)c4ccc(C(C)(C)C)cc4)cc3)cc2)cc1
emission maximum (in Cc1ccccc1): 419 nm | emission maximum (in O=P(c1ccccc1)(c1ccccc1)c1ccccc1Oc1ccccc1P(=O)(c1ccccc1)c1ccccc1): 430 nm

Structure (SMILES): CCCCCCCCCCCCNc1cccc2[n+]1[B-](F)(F)n1c(c3cccc4cccc1c43)=N2
emission maximum (in C1CCOC1): 523 nm | emission maximum (in CC#N): 519 nm | emission maximum (in CCCCCC): 509 nm | emission maximum (in Cc1ccccc1): 529 nm | emission maximum (in ClCCl): 522 nm

Structure (SMILES): COc1ccc(N(c2ccc(OC)cc2)c2ccc(-c3ccc(-c4ccc(-c5cccs5)c5nsnc45)s3)cc2)cc1
emission maximum (in ClC(Cl)Cl): 705 nm

Structure (SMILES): c1ccc2c(c1)Cc1ccccc1N2c1c2ccccc2cc2ccccc12
emission maximum (in Cc1ccccc1): 535 nm

Structure (SMILES): Cc1ccccc1N(c1ccccc1C)c1ccc2ccc3c(N(c4ccccc4C)c4ccccc4C)ccc4ccc1c2c43
emission maximum (in Cc1ccccc1): 452 nm

Source: the Deep4Chem optical property database
